The source of these data is ChEMBL document CHEMBL3576820, “Discovery of benzimidazole oxazolidinediones as novel and selective nonsteroidal mineralocorticoid receptor antagonists” (ACS Med Chem Lett, 2015).

In data set [1] the test system is Rattus norvegicus. The data set is described as follows: Natriuretic activity in po dosed WKY rat measured over 6 hrs. Type of data set: functional, organism-based.
A short description of data set [2]: Metabolic stability in rat liver microsomes assessed as compound remaining at 1 uM after 0.5 hrs. The format is ADME. The following applies: read-out: Stability. For orientation: Liver microsomes are a subcellular fraction often used to study metabolism.
The species named for data set [3] is Homo sapiens. Description: Selectivity ratio of IC50 for human estrogen receptor alpha to IC50 for human mineralocorticoid receptor.
For data set [4], the species on record is Homo sapiens. The data set is described as follows: Selectivity ratio of IC50 for human progesterone receptor beta to IC50 for human mineralocorticoid receptor.
The species named for data set [5] is Homo sapiens. The data set is described as follows: Selectivity ratio of IC50 for human glucocorticoid receptor to IC50 for human mineralocorticoid receptor.
Data set [6] can be described thus: Plasma protein binding in rat. Type of data set: ADME, cell-free. The note with it: read-out: PPB.
The species entered for data set [7] is Homo sapiens. Description: Selectivity ratio of IC50 for human androgen receptor to IC50 for human mineralocorticoid receptor.
The species entered for data set [8] is Homo sapiens. Description: Selectivity ratio of IC50 for human estrogen receptor beta to IC50 for human mineralocorticoid receptor.
A short description of data set [9]: Plasma protein binding in human. Type of data set: ADME, cell-free. The following applies: read-out: PPB.
The target of data set [10] is T1, Mineralocorticoid receptor (Homo sapiens, UniProt P08235).
T1 sequence (P08235 whole entry): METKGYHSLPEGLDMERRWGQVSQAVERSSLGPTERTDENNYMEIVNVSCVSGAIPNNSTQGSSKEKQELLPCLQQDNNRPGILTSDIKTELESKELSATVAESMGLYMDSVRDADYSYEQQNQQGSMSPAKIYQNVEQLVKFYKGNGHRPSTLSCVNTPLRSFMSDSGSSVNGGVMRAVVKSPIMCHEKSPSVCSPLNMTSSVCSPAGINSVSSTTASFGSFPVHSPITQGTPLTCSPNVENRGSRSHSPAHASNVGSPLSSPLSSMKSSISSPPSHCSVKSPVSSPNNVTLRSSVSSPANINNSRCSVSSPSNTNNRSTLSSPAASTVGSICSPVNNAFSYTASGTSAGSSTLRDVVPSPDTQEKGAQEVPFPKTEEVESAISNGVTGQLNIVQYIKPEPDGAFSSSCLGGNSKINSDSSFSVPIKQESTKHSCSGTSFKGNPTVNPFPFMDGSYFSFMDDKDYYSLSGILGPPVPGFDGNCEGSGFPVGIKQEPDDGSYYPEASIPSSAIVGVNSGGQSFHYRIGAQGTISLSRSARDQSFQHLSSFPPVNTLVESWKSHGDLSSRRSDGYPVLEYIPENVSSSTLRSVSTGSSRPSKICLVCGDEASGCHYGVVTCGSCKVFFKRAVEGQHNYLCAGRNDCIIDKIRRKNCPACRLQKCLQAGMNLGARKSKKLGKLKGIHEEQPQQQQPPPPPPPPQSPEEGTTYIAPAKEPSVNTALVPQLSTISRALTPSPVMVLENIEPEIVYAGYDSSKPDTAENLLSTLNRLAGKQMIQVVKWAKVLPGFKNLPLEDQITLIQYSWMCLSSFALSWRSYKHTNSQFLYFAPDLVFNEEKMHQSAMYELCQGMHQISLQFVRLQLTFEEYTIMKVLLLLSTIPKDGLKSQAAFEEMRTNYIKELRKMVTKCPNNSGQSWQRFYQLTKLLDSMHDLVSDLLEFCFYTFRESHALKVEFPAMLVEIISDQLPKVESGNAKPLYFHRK
The data set is described as follows: Binding affinity to mineralocorticoid receptor (unknown origin).

Calls of active or inactive are those of the source. No cut-off for these calls is given here. A value given as a limit tells only on which side of the number the result lay.

Consider `C[C@H](c1ccc(F)cc1)N1C(=O)O[C@](Cc2ccccc2)(c2nc3cc(NS(C)(=O)=O)ccc3[nH]2)C1=O`, for which the outcome in data set [1] was Active. In data set [2], the remaining at 0.5 h, 1 µM is 80%.

Consider `C[C@H](c1ccc(F)cc1)N1C(=O)O[C@](Cc2ccccc2)(c2nc3cc(-c4cccnc4)ccc3[nH]2)C1=O`, for which the Ratio IC50 is more than 40 in data set [3]; more than 40 in [4]; more than 40 in data set [5]; 110 in data set [7]; more than 40 in data set [8]. In addition, the fraction unbound in data set [6] and in data set [9] was less than 0.01 throughout. The result in data set [1] was Active. In addition, the remaining at 0.5 h, 1 µM in data set [2] turned out to be 45%.

With `C[C@H](c1ccc(F)cc1)N1C(=O)O[C@](Cc2ccccc2)(c2nc3cc(Cl)ccc3[nH]2)C1=O`, the affinity in [10], expressed as Ki, was 2 nM. For the same compound, the fraction unbound in data set [6] and in [9] was less than 0.01 in each case. For the same compound, the outcome in data set [1] was Active. Moreover, the remaining at 0.5 h, 1 µM in [2] was determined as 14%.

Turning to `C[C@H](c1ccc(F)cc1)N1C(=O)O[C@](Cc2ccccc2)(c2nc3cc(-c4cc[nH]n4)ccc3[nH]2)C1=O`, in data set [2], the remaining at 0.5 h, 1 µM is 62%.

Regarding `Cc1nocc1-c1ccc2[nH]c([C@@]3(Cc4ccccc4)OC(=O)N([C@H](C)c4ccc(F)cc4)C3=O)nc2c1`, the Ratio IC50 is more than 40 in data set [3]; more than 40 in [4]; more than 40 in data set [5]; 90 in data set [7]; more than 40 in data set [8]. Moreover, the remaining at 0.5 h, 1 µM in data set [2] is 54%.

Turning to `C[C@H](c1ccc(F)cc1)N1C(=O)O[C@](Cc2ccccc2)(c2nc3cc(C(F)(F)F)ccc3[nH]2)C1=O`, the fraction unbound in [6] and in data set [9] was less than 0.01 in each case. In addition, the remaining at 0.5 h, 1 µM in data set [2] was 41%.

With `C[C@H](c1ccc(F)cc1)N1C(=O)O[C@](Cc2ccccc2)(c2nc3c(NS(C)(=O)=O)cccc3[nH]2)C1=O`, the remaining at 0.5 h, 1 µM in data set [2] turned out to be 44%.

For the compound `C[C@H](c1ccc(F)cc1)N1C(=O)O[C@](Cc2ccccc2)(c2nc3cc(N4CCOCC4)ccc3[nH]2)C1=O`, the Ratio IC50 in [3], in [4], in [5], in data set [7] and in data set [8] was more than 40 throughout. Also, the Activity entry in data set [1] is “Dose-dependent effect”. In addition, in data set [2], the remaining at 0.5 h, 1 µM turned out to be 92%.

What is called Ki is the equilibrium dissociation constant of an inhibitor or competing ligand from its target. A low value points to tighter binding.
